Results taken from patent publication US8471061B2 (priority 2004, dated 2013).
Values joined by “and” are separate entries in the source; they are usually repeats but may differ in a detail not shown here. Identical values can stand only once. Like-named read-outs stand apart in the source and are kept apart here.

How the values were obtained:
Chlorella sp. = experiment: Culturing of plankton; assay type: cell-based; details: 1 mM additive
Experimental: (§1) 5-Aminolevulinic acid nitrate was added, to a concentration of 1 mM (194 ppm), to 100 ml of a sterilized culture shown in Table 17 (components of the culture), and a Chlorella sp. was inoculated therein and cultured on a reciprocal shaker at 30° C. under aerobic and dark conditions to measure the amount of cells (OD 660).
as §1, with “acid hydrochloride” for “acid nitrate”, “mM (168” for “mM (194”, “of the” for “of a”, “and the” for “and a”
The Chlorella sp. was inoculated into 100 ml of the sterilized culture shown in Table 17 (components of the culture) and cultured on a reciprocal shaker at 30° C. under aerobic and dark conditions to measure the amount of cells (OD 660).

[1] = Acidity measurement of aqueous solutions with a pH meter; assay type: physicochemical; details: 1 to 1000 mM, 25° C., same concentration
Experimental: Aqueous 5-aminolevulinic acid phosphate solutions and aqueous 5-aminolevulinic acid hydrochloride solutions having a concentration of from 1 to 1000 mM were respectively prepared, and their acidity was measured at 25° C. using a pH meter.

[2] = test system: Salmonella typhimurium TA 1535; details: TA1535
Experimental: (§2) A test was carried out in accordance with the “Standard of Mutagenicity Tests Using Microorganisms” (Ministry of Labor Notification No. 77, 1988) (partial revision by Ministry of Labor Notification No. 67, 1997) and “Regarding the Tests Concerning Novel Chemical Substances and the like” (dated Nov. 21, 2003: Yaku-Shoku-Hatsu No. 1121002, 2003.11.13 Sei-Kyoku, No. 2, Kan-Ho-Ki-Hatsu No. 031121002). To 0.1 ml of a solution prepared by dissolving 5% (w/v) of 5-aminolevulinic acid phosphate in distilled water (Wako Pure Chemical Industries), 0.5 ml of 0.1 M sodium-phosphate buffer (pH 7.4) (0.5 ml S9 mix in the case of metabolism activation test) was added, and 0.1 ml of each test strain suspension (5 strains of histidine-less Salmonella typhimurium TA 100, TA 98, TA 1535 and TA 1537 and tryptophan-less Escherichia coli WP2 uvrA were used (Japan Bioassay Research Center)) was further added thereto, followed by pre-incubation at 37° C. for 20 minutes while shaking. After completion of the culturing, 2.0 ml of top agar kept at 45° C. in advance was added thereto and layered on a minimum glucose agar plate medium. In this case, 2 plates were arranged for each dosage. However, 3 plates were arranged for a solvent control (negative control). […] In the measurement, an inner area of about 80 mm in diameter of a plate of 86 mm in diameter (84 mm in inner diameter) was measured using an automatic colony analyzer (CA-11: manufactured by System Science), and calculated by carrying out area correction and counting loss correction using a personal computer. However, since reliability of the automatic colony analyzer is reduced when the number of colonies is 1,500 or more, 5 points in the plate were manually measured under the stereoscopic microscope to carry out area correction of the average value. A dosage setting test was carried out on 7 dosages diluted at a common ratio of 4, using a dosage of 5,000 μg/plate as the maximum which is the maximum dosage defined by the guideline.

[3] = test system: Salmonella typhimurium TA 1537; details: TA1537
Experimental: as §2

[4] = S9 Mix(−), 1250 μg/plate, Phosphate

Cl.NCC(=O)CCC(=O)O [5-aminolevulinic acid hydrochloride, reference compound]
amount of cells: OD 660 nm (Chlorella sp.; Culture time 0 day): 1.8
amount of cells: OD 660 nm (Chlorella sp.; Culture time 1 day): 6.3
amount of cells: OD 660 nm (Chlorella sp.; Culture time 2 day): 12.5
amount of cells: OD 660 nm (Chlorella sp.; Culture time 3 day): 14.8

NCC(=O)CCC(=O)O.O=P(O)(O)O [5-aminolevulinic acid phosphate, 5-aminolevulinic Acid Phosphate]
acidity of aqueous solution (FIG. 1) [1]: lower than that of the aqueous 5-aminolevulinic acid hydrochloride solution
number of back mutation, mean (in parentheses) ([2]; S9 Mix(+), 313 μg/plate): (11) colonies/plate
number of back mutation, single plates ([2]; S9 Mix(+), 313 μg/plate, Phosphate): 11 colonies/plate and 10 colonies/plate
number of back mutation, mean (in parentheses) ([2]; S9 Mix(+), 625 μg/plate): (10) colonies/plate
number of back mutation, mean (in parentheses) ([2]; S9 Mix(+), 1250 μg/plate): (12) colonies/plate
number of back mutation, single plates ([2]; S9 Mix(+), 1250 μg/plate, Phosphate): 10 colonies/plate and 14 colonies/plate
number of back mutation, mean (in parentheses) ([2]; S9 Mix(+), 2500 μg/plate): (8) colonies/plate
number of back mutation, single plates ([2]; S9 Mix(+), 2500 μg/plate): 8 colonies/plate
number of back mutation, mean (in parentheses) ([2]; S9 Mix(+), 5000 μg/plate): (7) colonies/plate
number of back mutation, single plates ([2]; S9 Mix(+), 5000 μg/plate, Phosphate): 6 colonies/plate and 8 colonies/plate
number of back mutation, mean (in parentheses) ([2]; S9 Mix(−), 313 μg/plate): (10) colonies/plate
number of back mutation, single plates ([2]; S9 Mix(−), 313 μg/plate): 10 colonies/plate
number of back mutation, mean (in parentheses) ([2]; S9 Mix(−), 625 μg/plate): (10) colonies/plate
number of back mutation, mean (in parentheses) ([2]; S9 Mix(−), 1250 μg/plate): (10) colonies/plate
number of back mutation, single plates [2, 4]: 8 colonies/plate and 11 colonies/plate
number of back mutation, mean (in parentheses) ([2]; S9 Mix(−), 2500 μg/plate): (6) colonies/plate
number of back mutation, single plates ([2]; S9 Mix(−), 2500 μg/plate, Phosphate): 6 colonies/plate and 5 colonies/plate
number of back mutation, mean (in parentheses) ([2]; S9 Mix(−), 5000 μg/plate): (7) colonies/plate
number of back mutation, mean (in parentheses) ([3]; S9 Mix(+), 313 μg/plate): (5) colonies/plate
number of back mutation, mean (in parentheses) ([3]; S9 Mix(+), 625 μg/plate): (6) colonies/plate
number of back mutation, mean (in parentheses) ([3]; S9 Mix(+), 1250 μg/plate): (6) colonies/plate
number of back mutation, single plates ([3]; S9 Mix(+), 1250 μg/plate): 6 colonies/plate
number of back mutation, mean (in parentheses) ([3]; S9 Mix(+), 2500 μg/plate): (4) colonies/plate
number of back mutation, single plates ([3]; S9 Mix(+), 2500 μg/plate, Phosphate): 5 colonies/plate and 3 colonies/plate
number of back mutation, mean (in parentheses) ([3]; S9 Mix(+), 5000 μg/plate): (4) colonies/plate
number of back mutation, mean (in parentheses) ([3]; S9 Mix(−), 313 μg/plate): (2) colonies/plate
number of back mutation, mean (in parentheses) ([3]; S9 Mix(−), 625 μg/plate): (3) colonies/plate
number of back mutation, mean (in parentheses) ([3]; S9 Mix(−), 1250 μg/plate): (3) colonies/plate
number of back mutation, single plates [3, 4]: 4 colonies/plate and 2 colonies/plate
number of back mutation, mean (in parentheses) ([3]; S9 Mix(−), 2500 μg/plate): (2) colonies/plate
number of back mutation, single plates ([3]; S9 Mix(−), 2500 μg/plate): 2 colonies/plate
number of back mutation, mean (in parentheses) ([3]; S9 Mix(−), 5000 μg/plate): (3) colonies/plate
